Consider 10 compounds from patent US7268147B2, “Compounds useful for the treatment of diseases” (Pfizer Inc, priority 2003, dated 2007).

Structures are written as SMILES.

As usually defined, the EC50 is the concentration at which the effect is half-maximal.

The target of this test is T1, human β2 adrenergic receptor (Homo sapiens, UniProt P07550).
T1 construct: expressed in transfected cells; host or cells: CHO (Chinese Hamster Ovary) cells, CHOhβ2
T1 sequence (P07550 whole entry): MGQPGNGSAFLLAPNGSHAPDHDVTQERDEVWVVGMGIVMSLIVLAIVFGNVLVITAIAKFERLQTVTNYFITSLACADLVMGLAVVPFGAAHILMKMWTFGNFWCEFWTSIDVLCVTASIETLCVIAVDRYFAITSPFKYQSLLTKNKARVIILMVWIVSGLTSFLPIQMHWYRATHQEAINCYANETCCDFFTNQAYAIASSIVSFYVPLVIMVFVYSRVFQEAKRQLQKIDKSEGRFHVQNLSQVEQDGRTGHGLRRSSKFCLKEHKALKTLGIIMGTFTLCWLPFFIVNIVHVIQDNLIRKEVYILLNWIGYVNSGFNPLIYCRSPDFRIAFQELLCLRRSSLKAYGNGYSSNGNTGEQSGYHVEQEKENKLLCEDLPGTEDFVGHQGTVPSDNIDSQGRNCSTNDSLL
The experiment in a line: Cell based cAMP β2 assay (cAMP-Flashplate, CHOhβ2 cells). The following applies: CHO cells recombinantly expressing the human β2 adrenergic receptor. The method, then:
According to another alternative, the agonist potency for the β2 receptor of the compounds of the formula (1) may also be determined by the measure of the concentration of compound according to the present invention required to produce half maximal effect (EC50) for the β2 receptor.
10 mM/100% DMSO (dimethylsulfoxide) stock of compound is diluted to required top dose in 4% DMSO. This top dose is used to construct a 10-point semi-log dilution curve, all in 4% DMSO. […] Data was expressed as % Isoprenaline response.
Cells were seeded to give about 90% confluency for testing.
25 μl/well each dose of compound was transferred into a cAMP-Flashplate® (NEN, SMP004B), with 1% DMSO as basal controls and 100 nM Isoprenaline as max controls. This was diluted 1:2 by the addition of 25 μl/well PBS. […] Compounds were incubated with 50 μu/well cells for 1 hour. […] Dose-response data was expressed as % Isoprenaline activity and fitted using a four parameter sigmoid fit.
As for `C[C@H](Cc1cccc(CC(=O)NCc2ccc(C(N)=O)cc2)c1)NC[C@H](O)c1ccc(O)c(CO)c1` [Example 8, 4-{(2-(3-{(2R)-2-[(2R)-2-Hydroxy-2-(4-hydroxy-3-hydroxymethyl-phenyl)-ethylamino]-propyl}-phenyl)-acetylamino)-methyl}-benzamide], the EC50 came to 0.01 nM.

For the compound `C[C@H](Cc1cccc(CC(=O)NCc2ccc(S(N)(=O)=O)cc2)c1)NC[C@H](O)c1ccc(O)c(CO)c1` [Example 6, N-[4-(Aminosulfonyl)benzyl]-2-(3-{(2R)-2-[(2R)-2-hydroxy-2-(4-hydroxy-3-hydroxymethyl-phenyl)-ethylamino]-propyl}-phenyl)-acetamide], the EC50 worked out at 0.007 nM. The figure for `C[C@H](Cc1cccc(CC(=O)NCCc2ccccc2)c1)NC[C@H](O)c1ccc(O)c(CO)c1` [Example 15, 2-(3-{(2R)-2-[(2R)-2-Hydroxy-2-(4-hydroxy-3-hydroxymethyl-phenyl)-ethylamino]-propyl}-phenyl)-N-(2-phenylethyl)acetamide] is 0.056 nM; for `C[C@H](Cc1cccc(CC(=O)NCc2ccccc2O)c1)NC[C@H](O)c1ccc(O)c(CO)c1` [Example 3, N-(2-Hydroxybenzyl)-2-(3-{(2R)-2-[(2R)-2-hydroxy-2-(4-hydroxy-3-hydroxymethyl-phenyl)-ethylamino]-propyl}-phenyl)-acetamide] it is 0.007 nM; for `C[C@H](Cc1cccc(CC(=O)NCc2ccccn2)c1)NC[C@H](O)c1ccc(O)c(CO)c1` [Example 7, 2-(3-{(2R)-2-[(2R)-2-Hydroxy-2-(4-hydroxy-3-hydroxymethyl-phenyl)-ethylamino]-propyl}-phenyl)-N-(pyridin-2-ylmethyl)-acetamide] it is 0.028 nM. Then `Cc1ccc(CNC(=O)Cc2cccc(C[C@@H](C)NC[C@H](O)c3ccc(O)c(CO)c3)c2)cc1C` [Example 12, N-(3,4-Dimethylbenzyl)-2-(3-{(2R)-2-[(2R)-2-hydroxy-2-(4-hydroxy-3-hydroxymethyl-phenyl)-ethylamino]-propyl}-phenyl)-acetamide], with 0.009 nM; and `COc1cccc(OC)c1CNC(=O)Cc1cccc(C[C@@H](C)NC[C@H](O)c2ccc(O)c(CO)c2)c1` [Example 1, N-(2,6-Dimethoxybenzyl)-2-(3-{(2R)-2-[(2R)-2-hydroxy-2-(4-hydroxy-3-hydroxymethyl-phenyl)-ethylamino]-propyl}-phenyl)-acetamide], with 0.017 nM.

Take `C[C@H](Cc1cccc(CC(=O)NCc2ccc(Cl)c(Cl)c2)c1)NC[C@H](O)c1ccc(O)c(CO)c1` [Example 5, N-(3,4-Dichlorobenzyl)-2-(3-{(2R)-2-[(2R)-2-hydroxy-2-(4-hydroxy-3-hydroxymethyl-phenyl)-ethylamino]-propyl}-phenyl)-acetamide]: the EC50 was 0.024 nM.

As to `C[C@H](Cc1cccc(CC(=O)NC2Cc3ccccc3C2)c1)NC[C@H](O)c1ccc(O)c(CO)c1` [Example 4, 2-(3-{(2R)-2-[(2R)-2-Hydroxy-2-(4-hydroxy-3-hydroxymethyl-phenyl)-ethylamino]-propyl}-phenyl)-N-indan-2-yl-acetamide], the EC50 was 0.012 nM. Then `C[C@H](Cc1cccc(CC(=O)NCc2ccc(OC(F)(F)F)cc2)c1)NC[C@H](O)c1ccc(O)c(CO)c1` [Example 10, 2-(3-{(2R)-2-[(2R)-2-Hydroxy-2-(4-hydroxy-3-hydroxymethyl-phenyl)-ethylamino]-propyl}-phenyl)-N-(4-trifluoromethoxybenzyl)-acetamide], with 0.114 nM.
